Data published in article PMC10796634, “Discovery of plant chemical defence mediated by a two-component system involving β-glucosidase in Panax species” (Nature Communications, 2024).

Test system: PnGH1
Test: HPLC quantification of product Fd, Michaelis-Menten fit
Assay type: biochemical, Panax notoginseng
Details: pH 5.0 (50 mM Tris-HCl), 60 °C, 30 min, 30–8000 µM Rb3

Work on `CC(C)=CCC[C@](C)(O[C@@H]1O[C@H](CO[C@@H]2OC[C@@H](O)[C@H](O)[C@H]2O)[C@@H](O)[C@H](O)[C@H]1O)[C@H]1CC[C@]2(C)[C@@H]1[C@H](O)C[C@@H]1[C@@]3(C)CC[C@H](O[C@@H]4O[C@H](CO)[C@@H](O)[C@H](O)[C@H]4O[C@@H]4O[C@H](CO)[C@@H](O)[C@H](O)[C@H]4O)C(C)(C)[C@@H]3CC[C@]12C` [compound 4, Rb3] yielded a Km of 677 ± 38.5 µM.
